One compound from EPA's ToxValDB 9.5 (doi:10.2903/j.efsa.2009.297r) can be followed below.

One may read the NOAEL as the highest dose or exposure tested at which no adverse effect was seen.

One data set deals with Tagia sp. The settings on record: mortality.
Another data set relates to Oryctolagus sp. The settings on record: developmental; development.
Another data set has as its system Apis mellifera. The settings on record: acute; dermal; mortality.
A further data set has as its system Salmo trutta ssp. fario. The settings on record: acute; duration: 96 hours; mortality.
A further data set relates to Canidae. The settings on record: chronic; duration: 1 years; oral; Dog Other; body weight.
The next data set relates to Oncorhynchus mykiss. The settings on record: chronic/long-term; duration: 28 days.
The next data set concerns Adalia sp. The settings on record: not reported; reproduction.
Another data set concerns Rattus norvegicus. The settings on record: oral.
The conditions of data set [1]: reproductive.

Values after ≈ are worked out from the molar mass of the structure shown. Values joined by “and” are separate entries in the source; they are usually repeats but may differ in a detail not shown here. Equal values may be shown once.

Turning to `O=C1c2ccccc2C(=O)N1SC(Cl)(Cl)Cl` [Folpet], the LC50 in the data set on Tagia sp. (acute, duration: 14 days) is greater than 1000 mg/kg; in the data set with Anas platyrhynchos (short-term, oral, feed, mortality) it was greater than 746 mg/kg-day; in the data set on Salmo trutta ssp. fario, 0.098 µg/mL (≈ 0.33 µM); in the data set on Coturnix coturnix (acute, oral, diet, mortality), greater than 1130 mg/kg-day; in the data set on Oncorhynchus mykiss, 0.11 µg/mL (≈ 0.371 µM). Also, the NOEC in the data set on Tagia sp. (chronic/long-term) came to 5.18 mg/kg; in the data set with Anas platyrhynchos (reproductive), 90 mg/kg-day; in the data set on Coturnix coturnix (reproduction developmental, reproduction) it was 78.3 mg/kg-day; in data set [1], 1500 mg/kg. Further, the NOAEL in the data set on Oryctolagus sp. was 10 mg/kg-day and 20 mg/kg-day; in the data set with Canidae, 10 mg/kg-day; with Rattus norvegicus (chronic, duration: 2 years, diet, body weight), 10 mg/kg-day. Further, the LD50 in the data set on Apis mellifera was greater than 200 µg/piece; in the data set with Coturnix coturnix (acute, oral, mortality), greater than 2510 mg/kg; in the data set with Rattus norvegicus (acute, mortality), greater than 2000 mg/kg. In the data set with Adalia sp., this compound registered an LEL of 530 g/ha.
